{
  "source": "patent US20010046979A1",
  "about": "“Acidic antimicrobial compositions for treating food and food contact surfaces and methods of use thereof” (priority 2000, published 2001)",
  "assay_in_all_cases": "Antimicrobial effectiveness on inoculated broccoli, 5 minute soak",
  "format_in_all_cases": "cell-based",
  "key": {"E-Coli": {"system": "E-Coli", "conditions": "5 g/L", "procedure": "(§1) Concentrated powdered compositions E and F are prepared and dissolved in deionized and hard water (10 gpg) at a level of 5 grams of composition per Liter of water to form a dilute aqueous treatment composition. The dilute aqueous treatment compositions are then tested on broccoli samples for antimicrobial effectiveness.\n(§2) A Broccoli sample is innoculated with a bacterial solution containing ≧10^8 cfu bacterium per ml. Application of 100 microliters of this solution to the surface results in approximately 10^6 to 10^7 cfu per broccoli piece. Equal amounts of small spots are deposited to facilitate drying. After 30 minutes dry time the sample is placed in 50 ml of the dilute aqueous treatment composition for a 5 minute soak. After the 5 minute soak the sample is transferred to 50 ml of a neutralizer before being stomached for 2 minutes and subsequently plated to enumerate the organisms surviving the treatments. Suprisingly the acid-anionic system maintained equal or better antimicrobial activity vs. 200 ppm hypochlorite bleach over the range from 0 to 10 gpg, as shown by the data in the following Tables."}, "Staph aureus": {"system": "Staph aureus", "conditions": "5 g/L", "procedure": "as §1, §2"}, "Listeria": {"system": "Listeria", "conditions": "0 gpg water", "procedure": "as §1, §2\n(§3) Composition E is further tested on Salmonella and Listeria on broccoli with similar results."}, "Salmonella": {"system": "Salmonella", "conditions": "0 gpg water", "procedure": "as §1, §2, §3"}},
  "data": [
    {"smiles": "[Na+].[O-]Cl", "note": "[200 ppm NaOCl, NaOCl]", "values": [
      {"measurement": "Log Reduction (greater than water alone) in 5 minutes", "setting": "E-Coli; 0 gpg water", "value": 0.86, "unit": "log"},
      {"measurement": "Log Reduction in 5 minutes", "setting": "E-Coli; 0 gpg water", "value": 1.2, "unit": "log"},
      {"measurement": "Log Reduction (greater than water alone) in 5 minutes", "setting": "E-Coli; 10 gpg water", "value": 0.93, "unit": "log"},
      {"measurement": "Log Reduction in 5 minutes", "setting": "E-Coli; 10 gpg water", "value": 1.3, "unit": "log"},
      {"measurement": "Log Reduction (greater than water alone) in 5 minutes", "setting": "Staph aureus; 0 gpg water", "value": 1.08, "unit": "log"},
      {"measurement": "Log Reduction in 5 minutes", "setting": "Staph aureus; 0 gpg water", "value": 1.5, "unit": "log"},
      {"measurement": "Log Reduction (greater than water alone) in 5 minutes", "setting": "Staph aureus; 10 gpg water", "value": 0.89, "unit": "log"},
      {"measurement": "Log Reduction in 5 minutes", "setting": "Staph aureus; 10 gpg water", "value": 1.3, "unit": "log"},
      {"measurement": "Log Reduction (greater than water alone) in 5 minutes", "setting": "Listeria", "value": 0.77, "unit": "log"},
      {"measurement": "Log Reduction (greater than water alone) in 5 minutes", "setting": "Salmonella", "value": 0.67, "unit": "log"}
    ]}
  ]
}
